Assay results: publication PMC9685055, “Biological activity of new bioactive steroids deriving from biotransformation of cortisone” (Microbial Cell Factories, 2022)

How the values were obtained:
[1] = tested on: primary cultures of rat cerebral cortex neurons; assay: Glutamate-induced neurotoxicity, MTT viability; type: cell-based; settings: 10 μM, added 15 min before glutamate; viability 24 h later
Method: Primary cultures of cortical neurons have been prepared from 1 day-old male rats [41]. After re-suspension in the plating medium, the cells were counted and then plated on poly-l-lysine (5 μg/mL)-coated dishes at a density of 2.5 × 10^6 cells/dish or on poly-l-lysine (5 μg/mL)-coated 24-well plates at a density of 0.5 × 10^6 cells/dish. The plating medium consisted of Eagle's Basal Medium supplemented with 10% inactivated fetal calf serum, 25 mM KCl, 2 mM glutamine and 100 μg/mL gentamycine. […] Cytosine arabinoside (10 μM) was added within 24 h of plating to prevent glial cell proliferation [41]. The cultures were maintained for 8 days in vitro before experiments.
The cultures were then returned to the incubator in their growth medium. 24 h later, the glutamate-induced neurotoxicity was evaluated by measuring the neuronal viability. The different drugs tested were added 15 min before glutamate exposure and were present until the end of the experiment.
The integrity of mitochondrial enzymes in viable neurons was determined with a colorimetric assay using 3-[4,5-dimethylthial-2-yl]-3, 5-diphenyl-tetrazolinium bromide (MTT) salt, as described by Mosdam [42]. […] The precipitated dye was dissolved in isopropanol with 1 M HCl and colorimetrically (absorbance at 570 nm) quantified. The results were expressed as values of absorbance at 570 nm.

[2] = DPPH radical scavenging assay; settings: 0.1 mg/mL; Trolox equivalents
Method: The DPPH assay was evaluated according to Aadil (2013) and Bonetti (2016). Fifty microliters of samples (cortisone, SCA and SCB) were added to […] of 0.06 mM of methanolic DPPH· radical solution. The reaction mixture was left to stand at room temperature in the dark for 15 min. The absorbance for the sample (Asample) was measured at 515 nm against methanol blank. A control was the absorbance of DPPH· solution.
Methanolic solutions with different Trolox concentrations (0.05 − 1 mM/L) were analyzed for calibration curve. The free radical scavenging capacity was expressed as micromolar of Trolox equivalents (TEs)/g of SCA and SCB compounds using calibration curve.

[3] = Photochemiluminescence (PCL-ACL) antioxidant assay; settings: 0.1 mg/mL; Trolox equivalents per g of sample
Method: Photochemiluminescence assay, based on the methodology of Popov and Lewin [35], was performed to measure the antioxidant activity of cortisone, SCA and SCB compounds against superoxide anion radicals generated from luminol, a photosensitizer, when exposed to UV light at λmax = 351 nm. The antioxidant activity of compounds was measured using ACL kits (Analytic Jena, Jena, Germany) with a Photochem apparatus (Analytic Jena, Jena, Germany). In the PCL-ACL assay, the photochemical generation of free radicals is combined with the sensitive detection using chemiluminescence. In ACL studies, the kinetic light emission curve was monitored for 3 min and expressed as mM Trolox equivalents. The areas under the curves were calculated using the PCL soft control and analysis software. […] The observed inhibition of the signal was plotted against the concentration of Trolox added to the assay medium. The concentration of the added sample was such that the generated luminescence during the 3 min sampling interval fell within the limits of the standard curve. For ACL assay, 2.3 mL of reagent 1 (solvent and dilution reagent, methanol), 0.2 mL of reagent 2 (buffer solution), 25 μL of reagent 3 (photosensitizer: luminol 1 mmol L^−1), and 10 μL of standard or sample solution were mixed and measured. Luminol is used as a photosensitizer and as a detecting substance for free radicals. Trolox were used for the standard calibration curve from […].

[4] = tested on: p65 NF-κB nuclear translocation in HaCaT cells; assay: TNFα-induced p65 NF-κB nuclear translocation, immunofluorescence; type: cell-based; settings: 10 μM pretreatment 24 h, then 10 ng/mL TNFα 1 h
Method: HaCaT cells were cultured with Dulbecco’s modified Eagle’s medium High Glucose (Lonza, Milan, Italy) supplemented with 10% FBS, 100 U/mL penicillin, 100 μg/mL streptomycin and 2 mM L-glutamine as previously described. Cells were maintained in a humidified incubator at 37 °C with 5% CO2 and incubated until the monolayer was 80% confluent. Medium was changed every 2 days.
HaCaT cells were pretreated with or without 10 μM of both SCA and SCB for 24 h. Stock solutions of the two compounds were prepared in DMSO immediately before use and diluted to the final concentration in the culture medium. In some sets of experiments, betamethasone-17-valerate (10 µg/mL) served as a positive control; dimethyl sulfoxide (DMSO) served as a solvent control. After the pretreatments, cells were stimulated with 10 ng/mL TNFα for 1 h to induce the NFκB signaling pathway. Then, media were replaced with fresh culture medium. Cells and supernatants were collected at different time points for each set of experiments as described below.
Briefly, HaCaT cells were seeded on coverslips at a density of 1 × 10^5 cell/mL and incubated with DMEM high glucose supplemented with FBS 10%. Then, HaCaT cells were treated as indicated above. At the end of the proinflammatory stimulus with TNFα, cells were fixed in 4% paraformaldehyde in PBS for 30 min at 4 °C as previously described. HaCaT cells were permeabilized for 5 min at RT with PBS containing 0.2% Triton X-100. After the blocking with 1% BSA in PBS at RT for 1 h, HaCaT cells were incubated with p65 NF-κB primary antibody (1:100, sc-372; Santa Cruz Biotechnology, Inc., Dallas, Texas, USA) in PBS containing 0.5% BSA at 4 °C overnight. After washing, coverslips were incubated with appropriate secondary antibody for 1 h at RT. Nuclei were stained with 1 μg/mL DAPI (Sigma- Aldrich, Italy) for 1 min. […] Fluorescence was examined using an Epifluorescence microscope (Nikon Eclipse E800; Nikon Corporation, Surrey, UK) equipped with a plan apochromat 100 × 0.5 − 1.3 oil immersion objective and a mercury lamp source.

With `Cc1ccc(O)c2c1CCC1C3CC[C@](O)(C(=O)CO)[C@@]3(C)CC(=O)[C@@]21O` (stereo partly drawn) [SCA, 1,9β,17,21‐tetrahydoxy‐4‐methyl‐19‐nor‐9β‐pregna‐1,3,5(10)‐trien‐11,20‐dione] the “effect on glutamate-induced neurotoxicity (cell viability, MTT)” value [1] was “partially reduced”, the “DPPH radical scavenging activity (in words)” value [2] was “high antioxidant property compared with the cortisone precursor” and the “antioxidant capacity, PCL-ACL assay” value [3] was 1375 µmol/g. The “effect on TNFα-stimulated translocation of p65 to the nucleus” value [4] was “barely affected”.
In the case of `Cc1ccc(O)c2c1CCC1C3CC[C@](O)([C@H](O)CO)[C@@]3(C)CC(=O)[C@@]21O` (stereo partly drawn) [SCB, 1,9β,17,20β,21‐ pentahydoxy‐4‐methyl‐19‐nor‐9β‐pregna‐1,3,5(10)‐trien‐11‐one], the “effect on glutamate-induced neurotoxicity (cell viability, MTT)” value [1] is reported as “partially reduced”, the “DPPH radical scavenging activity (in words)” value [2] is reported as “high antioxidant property compared with the cortisone precursor” and the “antioxidant capacity, PCL-ACL assay” value [3] is reported as 1265 µmol/g. The “effect on TNFα-stimulated translocation of p65 to the nucleus” value [4] was “showed the ability in counteracting the proinflammatory stimulus”.
